In BindingDB's records for doi:10.7270/Q2CV4GM1 (D3R/Abbott, 2015):
Values joined by “and” are separate entries in the source; they are usually repeats but may differ in a detail not shown here. Equal entries are not always repeated.

The compounds below were run against T1, Tyrosine-protein kinase SYK [355-635] (Homo sapiens, UniProt P43405) (assay: SYK assay_HTRF).
T1 construct: 355-635

Row | IC50 | Structure (SMILES)
1 | 16.6 nM | COCCN(c1ccnc(Nc2ccc3cnn(C)c3c2)n1)c1cccc2[nH]ncc12 [GTC000313A]
2 | 15.7 nM | O=S1(=O)NCc2ccc(Nc3nccc(N(CC(F)(F)F)c4cccc5[nH]ncc45)n3)cc21 [GTC000314A]
3 | 16.3 nM | COCCCN(c1nc(Nc2cccc(-c3ocnc3C)c2)ncc1F)c1cccc2[nH]ncc12 [GTC000315A]
4 | 16.4 nM | Cc1ncoc1-c1cccc(Nc2ncc(F)c(N(C)c3cccc4[nH]ncc34)n2)c1 [GTC000316A]
5 | 9.93 nM and 24.8 nM and 41.3 nM | CCN(c1nc(Nc2cccc(-c3cnco3)c2)ncc1Cl)c1cccc2[nH]ncc12 [GTC000317A]
6 | 13.4 nM and 35.2 nM | CCN(c1nc(Nc2cccc(C(N)=O)c2)ncc1F)c1cccc2[nH]ncc12 [GTC000318A]
7 | 18.2 nM | CCN(c1nc(Nc2ccc3c(c2)CCN3C(C)=O)ncc1F)c1cccc2[nH]ncc12 [GTC000319A]
8 | 21.4 nM | CCN(c1nc(Nc2cccc(-c3noc(C)n3)c2)ncc1F)c1cccc2[nH]ncc12 [GTC000320A]
9 | 21.2 nM | CCN(c1nc(Nc2ccc3[nH]c(=O)n(C)c3c2)ncc1F)c1cccc2[nH]ncc12 [GTC000321A]
10 | 20.5 nM | COCCN(c1ccnc(Nc2ccc3nn[nH]c3c2)n1)c1cccc2[nH]ncc12 [GTC000322A]
11 | 21.5 nM | COCCN(c1ccnc(Nc2cccc(-c3ocnc3C)c2)n1)c1cccc2[nH]ncc12 [GTC000323A]
12 | 12.8 nM and 61.9 nM | COCCCN(c1ccnc(Nc2cccc(C(N)=O)c2)n1)c1cccc2[nH]ncc12 [GTC000324A]
13 | 10.1 nM and 55.7 nM and 29.3 nM | CCN(c1nc(Nc2ccc3ncsc3c2)ncc1F)c1cccc2[nH]ncc12 [GTC000325A]
14 | 13.5 nM and 17.3 nM and 66.7 nM | CCN(c1nc(Nc2ccc3c(c2)C(=O)NC3)ncc1F)c1cccc2[nH]ncc12 [GTC000326A]
15 | 12.1 nM and 21.5 nM and 43.8 nM | CCN(c1nc(Nc2ccc3c(c2)S(=O)(=O)NC3)ncc1Br)c1cccc2[nH]ncc12 [GTC000327A]
16 | 15.2 nM and 29.6 nM and 50.5 nM and 12.2 nM | CCN(c1nc(Nc2ccc3cn[nH]c3c2)ncc1Cl)c1cccc2[nH]ncc12 [GTC000328A]
17 | 23.2 nM and 12.7 nM and 55.7 nM and 25.3 nM | CCN(CC)CCCN(c1ccnc(Nc2cccc(S(N)(=O)=O)c2)n1)c1cccc2[nH]ncc12 [GTC000329A]
18 | 36.2 nM and 19.4 nM | CCN(c1nc(Nc2ccc3c(c2)S(=O)(=O)N(CC2CC2)C3)ncc1F)c1cccc2[nH]ncc12 [GTC000330A]
19 | 23.8 nM | CCN(c1nc(Nc2cccc(N3CCN(C)CC3)c2)ncc1F)c1cccc2[nH]ncc12 [GTC000331A]
20 | 23.9 nM | CCN(CC)CCCN(c1ccnc(Nc2ccc3c(c2)C(=O)NS3(=O)=O)n1)c1cccc2[nH]ncc12 [GTC000332A]
21 | 27.3 nM | CCN(c1nc(Nc2ccc(CCO)cc2)ncc1F)c1cccc2[nH]ncc12 [GTC000333A]

Row | IC50 | Structure (SMILES)
22 | 24 nM | CCN(c1nc(Nc2ccc3cnn(C)c3c2)ncc1Cl)c1cccc2[nH]ncc12 [GTC000334A]
23 | 22.4 nM | COCCN(c1ccnc(Nc2cccc(S(N)(=O)=O)c2)n1)c1cccc2[nH]ncc12 [GTC000335A]
24 | 25.6 nM | COCCCN(c1nc(Nc2ccc3nn[nH]c3c2)ncc1F)c1cccc2[nH]ncc12 [GTC000336A]
25 | 22.8 nM | CN(c1nc(Nc2cccc(S(N)(=O)=O)c2)ncc1F)c1cccc2[nH]ncc12 [GTC000337A]
26 | 11.6 nM and 39.7 nM and 85.1 nM | CS(=O)(=O)c1cccc(Nc2nccc(N(CCCO)c3cccc4[nH]ncc34)n2)c1 [GTC000338A]
27 | 43.1 nM and 26.8 nM | CC(=O)N1CCC(CN(c2ccnc(Nc3ccc4[nH]c(=O)[nH]c4c3)n2)c2cccc3[nH]ncc23)CC1 [GTC000339A]
28 | 29.3 nM | CCN(c1nc(Nc2cccc(-c3cccnc3)c2)ncc1F)c1cccc2[nH]ncc12 [GTC000340A]
29 | 30.5 nM | CCN(c1nc(Nc2cc(S(N)(=O)=O)ccc2OC)ncc1F)c1cccc2[nH]ncc12 [GTC000341A]
30 | 33.8 nM | CCN(c1nc(Nc2cccc(S(=O)(=O)NC3CC3)c2)ncc1F)c1cccc2[nH]ncc12 [GTC000342A]
31 | 32.7 nM | CCN(c1nc(Nc2ccc(C)c(S(=O)(=O)NCCO)c2)ncc1F)c1cccc2[nH]ncc12 [GTC000343A]
32 | 31.8 nM | NC(=O)c1cccc(Nc2ncc(F)c(N(CCCO)c3cccc4[nH]ncc34)n2)c1 [GTC000344A]
33 | 30.8 nM | COCCN(c1ccnc(Nc2ccc3c(cnn3C)c2)n1)c1cccc2[nH]ncc12 [GTC000345A]
34 | 30.3 nM | COCCCN(c1nc(Nc2cccc(C(N)=O)c2)ncc1F)c1cccc2[nH]ncc12 [GTC000346A]
35 | 33.3 nM | COCCCN(c1nc(Nc2cccc(S(C)(=O)=O)c2)ncc1F)c1cccc2[nH]ncc12 [GTC000347A]
36 | 30.5 nM | CCN(c1nc(Nc2ccc(N)c(OC(C)=O)c2)ncc1F)c1cccc2[nH]ncc12 [GTC000348A]
37 | 35.9 nM | CCN(c1nc(Nc2ccc(C)c(S(N)(=O)=O)c2)ncc1F)c1cccc2[nH]ncc12 [GTC000349A]
38 | 40.6 nM | CCCN(c1nc(Nc2ccc3c(c2)S(=O)(=O)CC3)ncc1F)c1cccc2[nH]ncc12 [GTC000350A]
39 | 36.6 nM | CN(c1nc(Nc2ccc(C(N)=O)cc2)ncc1F)c1cccc2[nH]ncc12 [GTC000351A]
40 | 23.1 nM and 99.3 nM | COCCCN(c1ccnc(Nc2cccc(S(C)(=O)=O)c2)n1)c1cccc2[nH]ncc12 [GTC000352A]
41 | 32.5 nM and 109 nM | CCN(c1nc(Nc2ccc3c(c2)C(=O)N(C)C3)ncc1F)c1cccc2[nH]ncc12 [GTC000353A]
42 | 59 nM | CCN(c1nc(Nc2ccc3c(c2)CCN3C(=O)C(F)(F)F)ncc1F)c1cccc2[nH]ncc12 [GTC000354A]

Row | IC50 | Structure (SMILES)
43 | 56.9 nM | CCN(c1nc(Nc2cccc(S(N)(=O)=O)c2)ncc1Cl)c1cccc2[nH]ncc12 [GTC000355A]
44 | 59.3 nM | NS(=O)(=O)c1cccc(Nc2nccc(N(CCCCO)c3cccc4[nH]ncc34)n2)c1 [GTC000356A]
45 | 67.9 nM | CCN(c1nc(Nc2ccc3c(c2)NC(=O)CO3)ncc1F)c1cccc2[nH]ncc12 [GTC000357A]
46 | 81.8 nM | CNC(=O)CN(c1nc(Nc2ccc3c(c2)S(=O)(=O)NC3)ncc1F)c1cccc2[nH]ncc12 [GTC000358A]
47 | 87.3 nM | CN(c1nc(Nc2cccc(S(C)(=O)=O)c2)ncc1F)c1cccc2[nH]ncc12 [GTC000359A]
48 | 79.4 nM | CS(=O)(=O)c1cccc(Nc2ncc(F)c(N(CCCO)c3cccc4[nH]ncc34)n2)c1 [GTC000360A]
49 | 72.3 nM | CCN(c1nc(Nc2ccc3[nH]c(=O)oc3c2)ncc1F)c1cccc2[nH]ncc12 [GTC000361A]
50 | 87.3 nM | CCN(c1nc(Nc2ccc(-c3cnco3)c(OC)c2)ncc1F)c1cccc2[nH]ncc12 [GTC000362A]
51 | 105 nM | CCN(c1nc(Nc2ccc(N3CCN(C)CC3)cc2)ncc1F)c1cccc2[nH]ncc12 [GTC000363A]
52 | 102 nM | CCN(c1nc(Nc2cc(S(N)(=O)=O)ccc2C)ncc1F)c1cccc2[nH]ncc12 [GTC000364A]
53 | 98.2 nM | NS(=O)(=O)c1cccc(Nc2nccc(N(CC(F)(F)F)c3cccc4[nH]ncc34)n2)c1 [GTC000365A]
54 | 110 nM | CN(c1nc(Nc2cccc(C(N)=O)c2)ncc1F)c1cccc2[nH]ncc12 [GTC000366A]
55 | 81.5 nM and 174 nM and 157 nM and 171 nM | CNC(=O)CN(c1nc(Nc2ccc3c(c2)S(=O)(=O)CC3)ncc1F)c1cccc2[nH]ncc12 [GTC000367A]
56 | 229 nM and 88.3 nM | CCN(CC)CCCN(c1ccnc(Nc2ccc3c(c2)CNS3(=O)=O)n1)c1cccc2[nH]ncc12 [GTC000368A]
57 | 198 nM | NC(=O)CN(c1nc(Nc2ccc3c(c2)S(=O)(=O)CC3)ncc1F)c1cccc2[nH]ncc12 [GTC000369A]
58 | 188 nM | CCN(c1nc(Nc2ccc3c(C)n(CCCO)nc3c2)ncc1F)c1cccc2[nH]ncc12 [GTC000370A]
59 | 225 nM | NCCN(c1nc(Nc2ccc3c(c2)S(=O)(=O)CC3)ncc1F)c1cccc2[nH]ncc12 [GTC000371A]
60 | 244 nM | CCN(c1nc(Nc2ccc(C(=O)N3CCN(C)CC3)cc2)ncc1F)c1cccc2[nH]ncc12 [GTC000372A]
61 | 624 nM | CCN(c1nc(Nc2cc(S(=O)(=O)NCC3CCCO3)ccc2OC)ncc1F)c1cccc2[nH]ncc12 (stereo unspecified) [GTC000373A]
